Laboratory results from patent publication US11053204B2, “Pyrimidinyloxy benzene derivatives as herbicides” (FMC Corporation, priority 2015, dated 2021).

How the values were obtained:
Type in all cases: in vivo
[1] = test system: barnyardgrass (Echinochloa crus-galli); experiment: Test A postemergence, visual injury rating; details: Echinochloa crus-galli, post-emergence, 240 h, 0 is no effect, 100 is complete control, read-out: Barnyardgrass plant response rating (0 to 100 scale)
Summary of the method: (§1)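 Injury scores run from 0, no effect, to 100, complete control, judged by eye against untreated plants roughly 10 days after treatment. Chemicals carried a surfactant in a non-phytotoxic solvent and went onto loam–sand soil preemergence or onto one- to two-leaf seedlings postemergence.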

[2] = test system: blackgrass (Alopecurus myosuroides); experiment: Test A postemergence, visual injury rating; details: Alopecurus myosuroides, post-emergence, 240 h, 0 is no effect, 100 is complete control, read-out: Blackgrass plant response rating (0 to 100 scale)
Summary of the method: as §1

[3] = test system: galium (catchweed bedstraw, Galium aparine); experiment: Test A postemergence, visual injury rating; details: Galium, post-emergence, 240 h, 0 is no effect, 100 is complete control, read-out: Galium plant response rating (0 to 100 scale)
Summary of the method: as §1

[4] = test system: blackgrass (Alopecurus myosuroides); experiment: Test C preemergence, plant response rating; details: Alopecurus myosuroides, pre-emergence, Preemergence
Text: (§2) Seeds of plant species selected from blackgrass (Alopecurus myosuroides), ryegrass, Italian (Italian ryegrass, Lolium multiflorum), wheat (winter wheat, Triticum aestivum), galium (catchweed bedstraw, Galium aparine), corn (Zea mays), crabgrass, large (large crabgrass, Digitaria sanguinalis), foxtail, giant (giant foxtail, Setaria faberii), johnsongrass (Sorghum halepense), lambsquarters (Chenopodium album), morningglory (Ipomoea coccinea), nutsedge, yellow (yellow nutsedge, Cyperus esculentus), pigweed (Amaranthus retroflexus), ragweed (common ragweed, Ambrosia elatior), soybean (Glycine max), barnyardgrass (Echinochloa crus-galli), oilseed rape (Brassica napus), pigweed, palmer (palmer pigweed, Amaranthus palmeri), waterhemp (common waterhemp, Amaranthus rudis), velvetleaf (Abutilon theophrasti), kochia (Kochia scoparia), surinam grass (Brachiaria decumbens), nightshade (eastern black nightshade, Solanum ptycanthum), wild poinsettia (Euphorbia heterophylla), windgrass (Apera spica-venti), and oat, wild (wild oat Avena fatua), were planted into a blend of loam soil and sand or a silt loam soil and treated preemergence with test chemicals formulated in a non-phytotoxic solvent mixture which included a surfactant.
(§3) At the same time, plants selected from these crop and weed species and also chickweed (common chickweed, Stellaria media), buckwheat, wild (wild buckwheat, Polygonum convolvulus), wild mustard (Sinapis arvensis), field poppy (Papaver rhoeas), field violet (Viola arvensis), geranium, cutleaf (cutleaf geranium, Geranium dissectum), Canada thistle (Cirsium arvense), and speedwell (bird's-eye speedwell, Veronica persica), were planted in pots containing Sunshine Redi-Earth® planting medium comprising spaghnum peat moss, vermiculite, starter nutrients and dolomitic limestone and treated with postemergence applications of test chemicals formulated in the same manner. Plants ranged in height from 2 to 18 cm (1- to 4-leaf stage) for postemergence treatments. Treated plants and controls were maintained in a greenhouse for 13 to 15 d, after which time all species were compared to controls and visually evaluated. Plant response ratings, summarized in Table C, are based on a scale of 0 to 100 where 0 is no effect and 100 is complete control. A dash (-) response means no test result.

corn (Zea mays) = experiment: Test C preemergence, plant response rating; details: Zea mays, pre-emergence, Preemergence
Text: as §2, §3

[5] = test system: crabgrass, large (large crabgrass, Digitaria sanguinalis); experiment: Test C preemergence, plant response rating; details: Digitaria sanguinalis, pre-emergence, Preemergence
Text: as §2, §3

[6] = test system: foxtail, giant (giant foxtail, Setaria faberii); experiment: Test C preemergence, plant response rating; details: Setaria faberi, pre-emergence, Preemergence
Text: as §2, §3

[7] = test system: lambsquarters (Chenopodium album); experiment: Test C preemergence, plant response rating; details: Chenopodium album, pre-emergence, Preemergence
Text: as §2, §3

[8] = test system: morningglory (Ipomoea coccinea); experiment: Test C preemergence, plant response rating; details: Ipomoea, pre-emergence, Preemergence
Text: as §2, §3

[9] = test system: nutsedge, yellow (yellow nutsedge, Cyperus esculentus); experiment: Test C preemergence, plant response rating; details: Cyperus, pre-emergence, Preemergence
Text: as §2, §3

[10] = test system: oilseed rape (Brassica napus); experiment: Test C preemergence, plant response rating; details: Brassica napus, pre-emergence, Preemergence
Text: as §2, §3

[11] = test system: ragweed (common ragweed, Ambrosia elatior); experiment: Test C preemergence, plant response rating; details: Ambrosia artemisiifolia, pre-emergence, Preemergence
Text: as §2, §3

[12] = test system: ryegrass, Italian (Italian ryegrass, Lolium multiflorum); experiment: Test C preemergence, plant response rating; details: Lolium multiflorum, pre-emergence, Preemergence
Text: as §2, §3

soybean (Glycine max) = experiment: Test C preemergence, plant response rating; details: Glycine max, pre-emergence, Preemergence
Text: as §2, §3

[13] = test system: velvetleaf (Abutilon theophrasti); experiment: Test C preemergence, plant response rating; details: Abutilon theophrasti, pre-emergence, Preemergence
Text: as §2, §3

[14] = test system: waterhemp (common waterhemp, Amaranthus rudis); experiment: Test C preemergence, plant response rating; details: Amaranthus tuberculatus, pre-emergence, Preemergence
Text: as §2, §3

[15] = test system: wheat (winter wheat, Triticum aestivum); experiment: Test C preemergence, plant response rating; details: Triticum aestivum, pre-emergence, Preemergence
Text: as §2, §3

CC(CC(F)(F)F)OC(=O)c1c(Br)cccc1Oc1ncc(Cl)cn1 (centres unmarked) [Compound 16, 3,3,3-trifluoro-1-methylpropyl 2-bromo-6-[(5-chloro-2-pyrimidinyl)oxy]benzoate]
pest or weed control at 125 g/ha ([1]; 125 g ai/ha): 10%
pest or weed control at 500 g/ha ([1]; 500 g ai/ha): 90%
pest or weed control at 125 g/ha ([2]; 125 g ai/ha): 20%
pest or weed control at 500 g/ha ([2]; 500 g ai/ha): 90%
pest or weed control at 125 g/ha ([3]; 125 g ai/ha): 90%
pest or weed control at 500 g/ha ([3]; 500 g ai/ha): 100%
pest or weed control at 62 g/ha ([4]; 62 g ai/ha, scale of 0 to 100): 5%
pest or weed control at 125 g/ha ([4]; 125 g ai/ha, scale of 0 to 100): 10%
pest or weed control at 16 g/ha ([4]; 16 g ai/ha, scale 0 to 100): 0%
pest or weed control at 31 g/ha ([4]; 31 g ai/ha, scale 0 to 100): 0%
Corn plant response rating (crop injury, 0 = no effect, 100 = complete kill) at 62 g/ha (corn (Zea mays); 62 g ai/ha, scale of 0 to 100): 0%
Corn plant response rating (crop injury, 0 = no effect, 100 = complete kill) at 125 g/ha (corn (Zea mays); 125 g ai/ha, scale of 0 to 100): 10%
Corn plant response rating (crop injury, 0 = no effect, 100 = complete kill) at 16 g/ha (corn (Zea mays); 16 g ai/ha, scale 0 to 100): 0%
Corn plant response rating (crop injury, 0 = no effect, 100 = complete kill) at 31 g/ha (corn (Zea mays); 31 g ai/ha, scale 0 to 100): 0%
pest or weed control at 62 g/ha ([5]; 62 g ai/ha, scale of 0 to 100): 90%
pest or weed control at 125 g/ha ([5]; 125 g ai/ha, scale of 0 to 100): 100%
pest or weed control at 16 g/ha ([5]; 16 g ai/ha, scale 0 to 100): 5%
pest or weed control at 31 g/ha ([5]; 31 g ai/ha, scale 0 to 100): 75%
pest or weed control at 62 g/ha ([6]; 62 g ai/ha, scale of 0 to 100): 90%
pest or weed control at 125 g/ha ([6]; 125 g ai/ha, scale of 0 to 100): 100%
pest or weed control at 16 g/ha ([6]; 16 g ai/ha, scale 0 to 100): 5%
pest or weed control at 31 g/ha ([6]; 31 g ai/ha, scale 0 to 100): 25%
pest or weed control at 125 g/ha ([7]; 125 g ai/ha, scale of 0 to 100): 50%
pest or weed control at 16 g/ha ([7]; 16 g ai/ha, scale 0 to 100): 0%
pest or weed control at 31 g/ha ([7]; 31 g ai/ha, scale 0 to 100): 20%
pest or weed control at 62 g/ha ([7]; 62 g ai/ha, scale 0 to 100): 20%
pest or weed control at 125 g/ha ([8]; 125 g ai/ha, scale of 0 to 100): 25%
pest or weed control at 16 g/ha ([8]; 16 g ai/ha, scale 0 to 100): 10%
pest or weed control at 31 g/ha ([8]; 31 g ai/ha, scale 0 to 100): 0%
pest or weed control at 62 g/ha ([8]; 62 g ai/ha, scale 0 to 100): 25%
pest or weed control at 125 g/ha ([9]; 125 g ai/ha, scale of 0 to 100): 0%
pest or weed control at 16 g/ha ([9]; 16 g ai/ha, scale 0 to 100): 0%
pest or weed control at 31 g/ha ([9]; 31 g ai/ha, scale 0 to 100): 0%
pest or weed control at 62 g/ha ([9]; 62 g ai/ha, scale 0 to 100): 0%
plant injury at 125 g/ha ([10]; 125 g ai/ha, scale of 0 to 100): 100%
plant injury at 16 g/ha ([10]; 16 g ai/ha, scale 0 to 100): 0%
plant injury at 31 g/ha ([10]; 31 g ai/ha, scale 0 to 100): 50%
plant injury at 62 g/ha ([10]; 62 g ai/ha, scale 0 to 100): 60%
pest or weed control at 125 g/ha ([11]; 125 g ai/ha, scale of 0 to 100): 0%
pest or weed control at 16 g/ha ([11]; 16 g ai/ha, scale 0 to 100): 0%
pest or weed control at 31 g/ha ([11]; 31 g ai/ha, scale 0 to 100): 0%
pest or weed control at 62 g/ha ([11]; 62 g ai/ha, scale 0 to 100): 5%
pest or weed control at 125 g/ha ([12]; 125 g ai/ha, scale of 0 to 100): 5%
pest or weed control at 16 g/ha ([12]; 16 g ai/ha, scale 0 to 100): 0%
pest or weed control at 31 g/ha ([12]; 31 g ai/ha, scale 0 to 100): 0%
pest or weed control at 62 g/ha ([12]; 62 g ai/ha, scale 0 to 100): 5%
plant injury at 125 g/ha (soybean (Glycine max); 125 g ai/ha, scale of 0 to 100): 5%
plant injury at 16 g/ha (soybean (Glycine max); 16 g ai/ha, scale 0 to 100): 0%
plant injury at 31 g/ha (soybean (Glycine max); 31 g ai/ha, scale 0 to 100): 0%
plant injury at 62 g/ha (soybean (Glycine max); 62 g ai/ha, scale 0 to 100): 0%
pest or weed control at 125 g/ha ([13]; 125 g ai/ha, scale of 0 to 100): 75%
pest or weed control at 16 g/ha ([13]; 16 g ai/ha, scale 0 to 100): 0%
pest or weed control at 31 g/ha ([13]; 31 g ai/ha, scale 0 to 100): 5%
pest or weed control at 62 g/ha ([13]; 62 g ai/ha, scale 0 to 100): 50%
pest or weed control at 125 g/ha ([14]; 125 g ai/ha, scale of 0 to 100): 100%
pest or weed control at 16 g/ha ([14]; 16 g ai/ha, scale 0 to 100): 10%
pest or weed control at 31 g/ha ([14]; 31 g ai/ha, scale 0 to 100): 60%
pest or weed control at 62 g/ha ([14]; 62 g ai/ha, scale 0 to 100): 85%
plant injury at 125 g/ha ([15]; 125 g ai/ha, scale of 0 to 100): 0%
plant injury at 16 g/ha ([15]; 16 g ai/ha, scale 0 to 100): 0%
plant injury at 31 g/ha ([15]; 31 g ai/ha, scale 0 to 100): 0%
plant injury at 62 g/ha ([15]; 62 g ai/ha, scale 0 to 100): 0%
